# From US20240180881A1, “METHODS FOR DECREASING RESISTANCE TO CHEMOTHERAPY” (National Institute of Immunology, priority 2022, published 2024)
# Tests used:
# [1] = tested on: MRP2 in HCT116 WT IC60 CPTR cells; experiment: MRP2 activity, CDF accumulation; assay type: cell-based; details: combinatorial treatment with CPT
# Protocol: The cells were incubated with MRP2 substrate CDFD for 30 minutes at 37° C. The accumulation of florescent product CDF was determined as a measure of MRP2 activity (FIG. 12E). The data is from three independent experiments. Mean±S.D.
# [2] = tested on: homologous recombination in HCT116 IC60 CPTR cells; experiment: HR assay; assay type: cell-based; details: HR substrate transfected for 72 hours
# Protocol: Concentrations of CPT used: 0.140 nM, 20 nM, 50 nM, 1000 nM. Concentration of 1-OHP: 0.14 μM, 2 μM, 4 μM, 6 μM, 8 μM. Concentrations of CDDP used: 0.140 μM, 2 μM, 5 μM, 10 μM. The percentage of viable cells were determined by MTT assays (FIG. 12A-12C). The data in FIG. 12A and FIG. 12C is from three independent experiments and the data in FIG. 12B is from nine independent experiments. […] The levels of MRP2, MRP3, MRP5, MXR were quantitated from three independent experiments. […] Specifically, HCT116 IC60 CPTR cells were transfected with the HR substrate for 72 hours and the levels of HR was determined (FIG. 6A). The data is from three independent experiments. […] The number of soft agar colonies in each condition were counted. The data is from three independent experiments.
# For HR assay, 10 μg of the HR plasmid (Seluanov et al., 2010) was digested with I-SceI, purified and eluted into 20 μl of 10 mM TrisHCl pH 8.0. 5 μg of the linearized reporter cassette along with 100 ng of tdTomato-N1 plasmid were transfected in an exponentially growing 10 cm dish of cells using FuGENE® HD Transfection Reagent. After 3 days of transfection, the cells were harvested. The GFP positive and TdRed positive cells were analysed by FACS. SCE assays were carried out as described earlier (Chabosseau et al., 2011).
# [3] = molecular target: T1, RAD54 chromatin remodeling activity (Homo sapiens, UniProt Q92698); experiment: REA assay on chromatinized MRP2 array; assay type: biochemical; details: 10 μM compound
# T1 construct: GST RAD54 (1-747) (WT), GST BLM (1-1417) (WT), His RAD54 (1-747) (WT); made in house; host or cells: E. coli BL-21 DE3
# T1 sequence (Q92698 1-747): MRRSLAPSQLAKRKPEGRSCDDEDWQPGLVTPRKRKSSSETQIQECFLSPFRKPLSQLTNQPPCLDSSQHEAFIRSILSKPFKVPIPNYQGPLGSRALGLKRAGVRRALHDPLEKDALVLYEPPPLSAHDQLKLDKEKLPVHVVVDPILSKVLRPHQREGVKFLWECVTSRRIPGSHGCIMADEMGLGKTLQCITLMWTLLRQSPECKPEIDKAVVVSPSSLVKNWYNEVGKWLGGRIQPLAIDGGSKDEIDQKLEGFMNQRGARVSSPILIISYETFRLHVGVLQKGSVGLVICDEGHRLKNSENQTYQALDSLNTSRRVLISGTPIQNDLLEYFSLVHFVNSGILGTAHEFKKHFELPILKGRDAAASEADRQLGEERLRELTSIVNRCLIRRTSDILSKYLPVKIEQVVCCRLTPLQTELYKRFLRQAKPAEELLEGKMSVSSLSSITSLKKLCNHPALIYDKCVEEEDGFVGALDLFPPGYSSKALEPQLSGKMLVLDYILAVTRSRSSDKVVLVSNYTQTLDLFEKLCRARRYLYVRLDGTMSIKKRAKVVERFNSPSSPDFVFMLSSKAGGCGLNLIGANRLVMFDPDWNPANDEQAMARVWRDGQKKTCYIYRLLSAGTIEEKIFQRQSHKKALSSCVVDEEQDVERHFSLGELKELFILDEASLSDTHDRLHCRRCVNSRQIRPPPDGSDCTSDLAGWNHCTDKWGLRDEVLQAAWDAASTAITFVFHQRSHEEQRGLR
# Description: (§1) The data was from three independent experiments.
# as §1
# (§2) The data is from three independent experiments.
# [4] = tested on: HCT116 CPT(R) cells stably expressing BLM (Delta 181-212) in BLM−/− background; experiment: Xenograft, cells expressing BLM (Delta 181-212); assay type: in vivo, NSG mice; details: for tumour volume, chemosensitivity to camptothecin: CPT + compound
# Protocol: Xenografts assays were carried out in NSG mice using HCT116 CPT(R) cells stably expressing BLM (Delta 181-212) in BLM−/− background. FIGS. 15A-15C show the tumour volumes post-injection of cells.
# RNA (FIG. 15D) or protein (FIG. 15E) levels of the indicated MDR genes were determined by RT-qPCR or immunoblotting with the indicated antibodies.
# HCT116 IC60 CPTR tumors = experiment: Xenograft model, camptothecin resistant cells; details: for tumor growth: CPT 1.25 mg/kg + compound 5 mg/kg intraperitoneally every 3 days, compared to CPT alone; for apoptosis in tumors, TUNEL positivity: dual treatment with CPT; for cell proliferation in tumors, Ki67 and PCNA levels: dual treatment with CPT/1-OHP
# CT26 cells = experiment: Syngeneic or allogenic model, CT26; assay type: in vivo, BALB/c mice; details: for tumour volume, chemoresistance: CPT + compound
# Protocol: Xenografts assays were carried out in BALB/c mice using CT26 cells.
# RNA (FIG. 17D) or protein (FIG. 17E) levels of the indicated MDR genes were determined by RT-qPCR or immunoblotting with the indicated antibodies.
# [5] = molecular target: T1, RAD54 chromatin remodeling activity; experiment: Restriction enzyme accessibility (REA) assay on chromatinized G5E4 array; assay type: biochemical; details: 10 μM compound, +ATP
# Description: as §2, §2
# His-RAD54 WT = molecular target: T2, His-RAD54 WT (Homo sapiens, UniProt Q92698); experiment: Tryptophan fluorescence assay; assay type: binding; details: compound, from 10 nM
# T2 construct: made in house; host or cells: E. coli BL-21 DE3
# T2 sequence (Q92698 1-747): T1 sequence (Q92698 1-747)
# Protocol: To determine how BLM peptide affects ATP binding and hydrolysis, tryptophan fluorescence assays were carried out using full-length recombinant RAD54 in presence of either BLM_peptide or SCM_peptide (FIG. 2H). Tryptophan fluorescence assays were carried out with RAD54 WT alone or RAD54 WT in presence of the indicated concentrations of either BLM_peptide (upper panel) or SCM_peptide (lower panel). The experiment was repeated three times and one representative experiment has been shown.
# RAD54 fluorescence was measured in a fluorometer.
# Tryptophan fluorescence measurements were performed on a Fluoromax Spectrofluorimeter (Horiba-Jobin Yvon Fluoromax 4). Recombinant His-RAD54 (500 nM) was excited at 280 nm and the emission intensity monitored at regular intervals from 295 nm to at least 450 nm.
# [6] = without or with compound treatment
SMILES,"MRP2 activity, accumulation of CDF [1]",levels of HR [2],"BLM dependent enhancement of RAD54 chromatin remodeling, fraction uncut [3]","tumour volume, chemosensitivity to camptothecin [4]",tumor growth (HCT116 IC60 CPTR tumors),"apoptosis in tumors, TUNEL positivity (HCT116 IC60 CPTR tumors)","cell proliferation in tumors, Ki67 and PCNA levels (HCT116 IC60 CPTR tumors)","tumour volume, chemoresistance (CT26 cells)","BLM (1-212) dependent enhancement of RAD54 chromatin remodeling, fraction uncut [5]",tryptophan fluorescence of RAD54 (His-RAD54 WT),"RNA and protein levels of the MDR genes in tumours [4, 6]","RNA and protein levels of multiple MDR genes (including MRP2) in tumors (HCT116 IC60 CPTR tumors; co-treated with CPT 1.25 mg/kg and compound 5 mg/kg, end point)",RNA and protein levels of the MDR genes in tumours (CT26 cells; [6])
"CC(=O)Nc1nnc(S(N)(=O)=O)s1 [C3, Acetazolamide]",decreased MRP2 activity,decreased the levels of the HR,decreased the efficiency of BLM dependent enhancement of RAD54 chromatin remodelling activity,abrogates the functions,inhibited the tumor growth,increased apoptosis,Decreased cell proliferation,reverses chemoresistance,decrease the efficiency of BLM dependent enhancement of RAD54 chromatin remodeling activity,quenched the tryptophan florescence of RAD54 even at 10 nM concentration,,,
"OCCN(CCO)c1nc(N2CCCCC2)c2nc(N(CCO)CCO)nc(N3CCCCC3)c2n1 [C7, Dipyridamole]",decreased MRP2 activity,decreased the levels of the HR,decreased the efficiency of BLM dependent enhancement of RAD54 chromatin remodelling activity,abrogates the functions,inhibited the tumor growth,increased apoptosis,Decreased cell proliferation,reverses chemoresistance,decrease the efficiency of BLM dependent enhancement of RAD54 chromatin remodeling activity,quenched the tryptophan florescence of RAD54 even at 10 nM concentration,,,
"CN1CCN(C2=Nc3ccccc3Oc3ccc(Cl)cc32)CC1.O=C(O)CCC(=O)O [C17, Loxapine succinate]",decreased MRP2 activity,decreased the levels of the HR,decreased the efficiency of BLM dependent enhancement of RAD54 chromatin remodelling activity,abrogates the functions,inhibited the tumor growth,increased apoptosis,Decreased cell proliferation,reverses chemoresistance,decrease the efficiency of BLM dependent enhancement of RAD54 chromatin remodeling activity,quenched the tryptophan florescence of RAD54 even at 10 nM concentration,unaffected,very significantly decreased,decreased
